Results taken from patent US9045493B2, “Furo[3,2-b]- and thieno[3,2-b]pyridin derivatives” (Merck Patent GmbH, priority 2012, dated 2015).

Columns and labels:
IKKε = molecular target: T1, IKKε (Homo sapiens, UniProt Q14164); test: IKKε kinase assay (384-well Flashplate); type: biochemical; settings: 10 μM ATP, 2 hours at 30° C.; read-out: IKKε enzyme assay IC50
T1 sequence (Q14164 1-716): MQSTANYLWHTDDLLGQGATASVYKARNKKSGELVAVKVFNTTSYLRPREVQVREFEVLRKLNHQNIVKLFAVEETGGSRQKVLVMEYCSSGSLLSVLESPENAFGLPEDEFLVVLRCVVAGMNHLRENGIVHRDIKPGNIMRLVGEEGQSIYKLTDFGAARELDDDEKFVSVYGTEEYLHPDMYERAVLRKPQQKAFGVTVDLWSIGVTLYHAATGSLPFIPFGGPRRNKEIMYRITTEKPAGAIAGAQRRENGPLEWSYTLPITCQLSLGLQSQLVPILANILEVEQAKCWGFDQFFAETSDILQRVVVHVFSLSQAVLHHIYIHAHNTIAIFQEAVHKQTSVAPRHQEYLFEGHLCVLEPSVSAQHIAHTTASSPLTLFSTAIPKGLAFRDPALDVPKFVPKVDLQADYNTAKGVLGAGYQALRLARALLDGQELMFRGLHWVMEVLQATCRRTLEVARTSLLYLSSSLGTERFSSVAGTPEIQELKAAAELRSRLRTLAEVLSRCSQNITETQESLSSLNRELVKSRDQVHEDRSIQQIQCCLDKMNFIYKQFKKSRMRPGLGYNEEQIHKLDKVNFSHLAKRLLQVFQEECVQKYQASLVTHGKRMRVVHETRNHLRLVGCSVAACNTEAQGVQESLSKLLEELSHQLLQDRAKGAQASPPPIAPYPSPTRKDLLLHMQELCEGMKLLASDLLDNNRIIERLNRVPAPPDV
Experimental: The kinase assay is performed either as 384-well Flashplate assay (for e.g. Topcount measurement).
1 nM IKKε, 800 nM biotinylated IκBα(19-42) peptide (Biotin-C6-C6-[…]) and 10 μM ATP (spiked with 0.3 μCi ^33P-ATP/well) are incubated in a total volume of 50 μl (10 mM MOPS, 10 mM Mg-acetat, 0.1 mM EGTA, 1 mM Dithiothreitol, 0.02% Brij35, 0.1% BSA, 0.1% BioStab, pH 7.5) with or without test compound for 2 hours at 30° C. The reaction is stopped with 25 μl 200 mM EDTA. After 30 Min at room temperature the liquid is removed and each well washed thrice with 100 μl 0.9% sodium chloride solution. […] Radioactivity is measured with Topcount (PerkinElmer). Results (e.g. IC50-values) are calculated with program tools provided by the IT-department (e.g. AssayExplorer, Symyx).

[1] = molecular target: T2, TANK binding kinase (TBK1) (Homo sapiens, UniProt Q9UHD2); test: TBK1 enzyme assay (384-well Flashplate kinase assay); type: biochemical; settings: 10 μM ATP, 120 Min at 30° C.
T2 sequence (Q9UHD2 1-729): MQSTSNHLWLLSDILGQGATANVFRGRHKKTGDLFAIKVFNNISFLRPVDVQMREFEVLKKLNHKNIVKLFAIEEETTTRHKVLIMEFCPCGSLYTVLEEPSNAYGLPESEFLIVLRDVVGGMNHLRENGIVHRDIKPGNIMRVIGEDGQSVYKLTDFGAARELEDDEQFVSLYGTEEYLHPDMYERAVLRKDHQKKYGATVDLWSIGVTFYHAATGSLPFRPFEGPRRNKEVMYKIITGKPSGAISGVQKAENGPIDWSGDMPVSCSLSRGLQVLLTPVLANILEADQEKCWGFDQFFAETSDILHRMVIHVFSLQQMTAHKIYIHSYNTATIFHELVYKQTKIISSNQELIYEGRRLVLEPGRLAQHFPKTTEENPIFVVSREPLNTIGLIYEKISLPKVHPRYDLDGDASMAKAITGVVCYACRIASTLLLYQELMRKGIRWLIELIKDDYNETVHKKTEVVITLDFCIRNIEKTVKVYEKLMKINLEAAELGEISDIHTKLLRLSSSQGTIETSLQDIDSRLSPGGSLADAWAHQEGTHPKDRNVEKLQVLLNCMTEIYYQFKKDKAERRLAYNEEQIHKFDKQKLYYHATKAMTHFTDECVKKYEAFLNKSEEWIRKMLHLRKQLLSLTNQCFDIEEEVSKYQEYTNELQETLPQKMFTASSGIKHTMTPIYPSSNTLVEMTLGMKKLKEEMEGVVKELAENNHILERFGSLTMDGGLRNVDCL
Experimental: The kinase assay is performed as 384-well Flashplate assay (for e.g. Topcount measurement.
0.6 nM TANK binding kinase (TBK1), 800 nM biotinylated MELK-derived peptide (Biotin-Ah-Ah-[…]) and 10 μM ATP (spiked with 0.25 μCi ^33P-ATP/well) are incubated in a total volume of 50 μl (10 mM MOPS, 10 mM Mg-acetat, 0.1 mM EGTA, 1 mM DTT, 0.02% Brij35, 0.1% BSA, pH 7.5) with or without test compound for 120 Min at 30° C. The reaction is stopped with 25 μl 200 mM EDTA. After 30 Min at room temperature the liquid is removed and each well washed thrice with 100 μl 0.9% sodium chloride solution. Nonspecific reaction is determined in presence of 100 nM Staurosporine. Radioactivity is measured in a Topcount (PerkinElmer). Results (e.g. IC50-values) are calculated with program tools provided by the IT-department (e.g. AssayExplorer, Symyx).

| Compound | IC50 (IKKε) | IC50 [1] |
| --- | --- | --- |
| CN(CCO)C(=O)c1ccc(-c2cc3nccc(-c4ccc(OC5CCOCC5)c(C#N)c4)c3o2)c(F)c1 [Compound A107] | < 300 nM | < 300 nM |
| COc1cc(-c2cc3nccc(-c4ccc(OC5CCOCC5)c(C#N)c4)c3o2)ccc1C(=O)NC1CCOCC1 [Compound A105] | < 300 nM | < 300 nM |
| CN1CCN(C(=O)c2ccc(-c3cc4nccc(-c5ccc(OCC6CC6)c(C#N)c5)c4o3)cc2)CC1 [Compound A39] | < 300 nM | < 300 nM |
| COc1cncc(-c2cc3nccc(-c4ccc(OC5CCOCC5)c(C#N)c4)c3o2)c1 [Compound A66] | < 300 nM | 300 to 3000 nM |
| N#Cc1cc(-c2ccnc3cc(-c4ccc(C(=O)N5CCOCC5)cc4F)oc23)ccc1OC1CCOCC1 [Compound A114] | < 300 nM | < 300 nM |
| N#Cc1cc(-c2ccnc3cc(-c4cnn(CCO)c4)sc23)ccc1OC1CCOCC1 [Compound A108] | < 300 nM | < 300 nM |
| COc1cc(-c2cc3nccc(-c4ccc(OC5CCOCC5)c(C#N)c4)c3o2)ccc1C(=O)N1CCN(CCO)CC1 [Compound A89] | < 300 nM | < 300 nM |
| N#Cc1cc(-c2ccnc3cc(-c4cccc5[nH]ccc45)oc23)ccc1OC1CCOCC1 [Compound A58] | < 300 nM | < 300 nM |
| N#Cc1cc(-c2ccnc3cc(-c4cnn(CCCO)c4)oc23)ccc1OC1CCOCC1 [Compound A54] | < 300 nM | < 300 nM |
| COc1cc(C(=O)N[C@H]2CCCNC2)ccc1-c1cc2nccc(-c3ccc(OC4CCOCC4)c(C#N)c3)c2o1 [Compound A118] | < 300 nM | < 300 nM |
| CN1CCN(C(=O)c2ccc(-c3cc4nccc(-c5ccc(N6CCOCC6)c(C#N)c5)c4o3)cc2)CC1 [Compound A76] | < 300 nM | < 300 nM |
| N#Cc1cc(-c2ccnc3cc(-c4cnn(C5CCN(CCO)CC5)c4)oc23)ccc1OC1CCOCC1 [Compound A67] | < 300 nM | < 300 nM |
| N#Cc1cc(-c2ccnc3cc(-c4ccc(C(=O)N5CCNCC5)cc4)oc23)ccc1N1CCOCC1 [Compound A73] | < 300 nM | < 300 nM |
| COc1cc(-c2cc3nccc(-c4ccc(OC5CCOCC5)c(C#N)c4)c3s2)ccc1C(=O)N1CCNCC1 [Compound A52] | < 300 nM | < 300 nM |
| N#Cc1cc(-c2ccnc3cc(-c4ccc(C(=O)N5CCNCC5)cc4)oc23)ccc1OCC1CCC1 [Compound A38] | < 300 nM | < 300 nM |
| CN(CCO)C(=O)c1ccc(-c2cc3nccc(-c4ccc(OC5CCOCC5)c(C#N)c4)c3s2)cc1 [Compound A44] | < 300 nM | < 300 nM |
| CN1CCN(c2cccc(-c3cc4nccc(-c5ccc(OC6CCOCC6)c(C#N)c5)c4o3)c2)CC1 [Compound A9, 5-{2-[3-(4-methyl-piperazin-1-yl)-phenyl]-furo[3,2-b]pyridin-7-yl}-2-(tetrahydro-pyran-4-yloxy)-benzonitrile] | < 300 nM | < 300 nM |
| N#Cc1cc(-c2ccnc3cc(-c4ccc(C(=O)N5CCNC(=O)CC5)cc4F)oc23)ccc1OC1CCOCC1 [Compound A112] | < 300 nM | < 300 nM |

The next lines start with the values.

| IC50 (IKKε) | IC50 [1] | Compound |
| --- | --- | --- |
| < 300 nM | < 300 nM | COc1cc(-c2cc3nccc(-c4ccc(OC5CCOCC5)c(C#N)c4)c3o2)ccc1C(=O)NCCN(C)C [Compound A32, 4-{7-[3-cyano-4-(tetrahydro-pyran-4-yloxy)-phenyl]-furo[3,2-b]pyridin-2-yl}-N-(2-dimethylamino-ethyl)-2-methoxy-benzamide] |
| 300 to 3000 nM | 300 to 3000 nM | CNC(=O)c1ccc(-c2cc3nccc(-c4ccc(OC5CCOCC5)c(C#N)c4)c3o2)cc1 [Compound A19, 4-{7-[3-cyano-4-(tetrahydro-pyran-4-yloxy)-phenyl]-furo[3,2-b]pyridin-2-yl}-N-methyl-benzamide] |
| 300 to 3000 nM | 300 to 3000 nM | COCCNC(=O)c1ccc(-c2cc3nccc(-c4ccc(OC5CCOCC5)c(C#N)c4)c3o2)cc1 [Compound A22, 4-{7-[3-cyano-4-(tetrahydro-pyran-4-yloxy)-phenyl]-furo[3,2-b]pyridin-2-yl}-N-(2-methoxy-ethyl)-benzamide] |
| < 300 nM | < 300 nM | CN(C)C(=O)c1ccc(-c2cc3nccc(-c4ccc(OC5CCOCC5)c(C#N)c4)c3o2)cc1 [Compound A23, 4-{7-[3-cyano-4-(tetrahydro-pyran-4-yloxy)-phenyl]-furo[3,2-b]pyridin-2-yl}-N,N-dimethyl-benzamide] |
| 300 to 3000 nM | 300 to 3000 nM | CCOC(=O)c1ccc(-c2cc3nccc(-c4ccc(OC5CCOCC5)c(C#N)c4)c3o2)cc1 [Compound A4, 4-{7-[3-cyano-4-(tetrahydro-pyran-4-yloxy)-phenyl]-furo[3,2-b]pyridin-2-yl}-benzoic acid ethyl ester] |
| < 300 nM | < 300 nM | COc1cc(C(=O)N(C)CCO)ccc1-c1cc2nccc(-c3ccc(OC4CCOCC4)c(C#N)c3)c2o1 [Compound A115] |
| < 300 nM | < 300 nM | N#Cc1cc(-c2ccnc3cc(-c4ccc(C(=O)NCCN5CCC(F)(F)CC5)cc4)oc23)ccc1OC1CCOCC1 [Compound A83] |
| < 300 nM | < 300 nM | Cc1ccc(-c2cc3nccc(-c4ccc(OC5CCOCC5)c(C#N)c4)c3o2)o1 [Compound A49] |
| < 300 nM | < 300 nM | COc1cc(C(=O)N(C)C)ccc1-c1cc2nccc(-c3ccc(OC4CCOCC4)c(C#N)c3)c2o1 [Compound A117] |
| < 300 nM | < 300 nM | N#Cc1cc(-c2ccnc3cc(-c4ccc(C(=O)N5CCN(CCO)CC5)cc4)oc23)ccc1OC1CCOCC1 [Compound A84] |
| < 300 nM | < 300 nM | COc1cc(-c2cc3nccc(-c4ccc(OC5CCOCC5)c(C#N)c4)c3o2)ccc1C(=O)NCCN1CCNC1=O [Compound A87] |
| < 300 nM | < 300 nM | CCN(C)C(=O)c1ccc(-c2cc3nccc(-c4ccc(OC5CCOCC5)c(C#N)c4)c3o2)cc1 [Compound A24, 4-{7-[3-cyano-4-(tetrahydro-pyran-4-yloxy)-phenyl]-furo[3,2-b]pyridin-2-yl}-N-ethyl-N-methyl-benzamide] |
| < 300 nM | < 300 nM | N#Cc1cc(-c2ccnc3cc(-c4ccc(C(=O)NCCN5CCOCC5)cc4)oc23)ccc1OC1CCOCC1 [Compound A79] |
| 300 to 3000 nM | 300 to 3000 nM | CCN(CCOC)C(=O)c1cccc(-c2cc3nccc(-c4ccc(OC5CCOCC5)c(C#N)c4)c3o2)c1 [Compound A26a, 3-{7-[3-cyano-4-(tetrahydro-pyran-4-yloxy)-phenyl]-furo[3,2-b]pyridin-2-yl}-N-ethyl-N-(2-methoxy-ethyl)-benzamide] |
